Measurements: US10000473B2, “Indazole derivatives useful as glucagon receptor antagonists” (Janssen Pharmaceutica NV, priority 2016, dated 2018)
pKi: −log10 of the molar value. Several values for one entry are separate records, joined by “and”; a condition that tells them apart may be missing. Equal entries are not always repeated.

Target: T1, human GCGR (Homo sapiens, UniProt P47871)
T1 construct: expressed in transfected cells; host or cells: HEK293 (hGluc-1HEK), pcDNA3.1, G418 selection
Assay: Cellular functional assay, cAMP readout (glucagon-stimulated cAMP, LANCE TR-FRET)
Type: cell-based
Conditions: HEK293 cells stably expressing full-length human GCGR; glucagon 100 pM; IC50 converted to Ki; read-out: Inhibition of cAMP Ki

T1 sequence (P47871 26-477): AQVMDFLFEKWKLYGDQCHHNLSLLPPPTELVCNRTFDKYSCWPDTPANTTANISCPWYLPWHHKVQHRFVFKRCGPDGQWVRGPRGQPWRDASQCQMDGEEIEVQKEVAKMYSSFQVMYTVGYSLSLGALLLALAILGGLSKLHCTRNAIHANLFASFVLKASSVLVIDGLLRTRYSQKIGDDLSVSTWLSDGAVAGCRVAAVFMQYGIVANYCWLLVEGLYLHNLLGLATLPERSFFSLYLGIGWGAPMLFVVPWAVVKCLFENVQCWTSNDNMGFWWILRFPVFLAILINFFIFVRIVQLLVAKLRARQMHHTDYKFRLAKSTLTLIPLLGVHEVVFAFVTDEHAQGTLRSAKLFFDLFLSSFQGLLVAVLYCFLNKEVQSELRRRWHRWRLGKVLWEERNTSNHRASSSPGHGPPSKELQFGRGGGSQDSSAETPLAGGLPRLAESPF

| pKi | Ki | Structure (SMILES) |
| --- | --- | --- |
|  | 25 nM (2×) and 20 nM | Cc1c(-c2ccc(C(F)(F)F)cc2Cl)ccc2nn([C@@H](CC(C)C)c3ccc(C(=O)NCCC(=O)O)cc3)cc12 [Compound #180, 3-[[4-[(1S)-1-[5-[2-Chloro-4-(trifluoromethyl)phenyl]-4-methyl-indazol-2-yl]-3-methyl-butyl]benzoyl]amino]propanoic acid] |
| 7.85 |  | Cc1cc(C(F)(F)F)ccc1-c1cc2cnn([C@@H](CC(C)C)c3ccc(C(=O)NCCC(=O)O)cc3)c2cc1C [Compound #253, 3-[[4-[(1S)-3-Methyl-1-[6-methyl-5-[2-methyl-4-(trifluoromethyl)phenyl]indazol-1-yl]butyl]benzoyl]amino]propanoic acid] |
| 7.43 |  | Cc1cc2c(cnn2C(CC(C)C)c2ccc(C(=O)NCCC(=O)O)nc2)cc1-c1ccc(C(F)(F)F)cc1Cl (stereo not shown) [Compound #259, 3-[[5-[1-[5-[2-Chloro-4-(trifluoromethyl)phenyl]-6-methyl-indazol-1-yl]-3-methyl-butyl]pridine-2-carbonyl]amino]propanoic acid] |
| 7.52 |  | COc1c(-c2ccc(C(F)(F)F)cc2Cl)ccc2c1cnn2[C@@H](CC(C)C)c1ccc(C(=O)NCCC(=O)O)cc1 [Compound #201, 3-[[4-[(1S)-1-[5-[2-Chloro-4-(trifluoromethyl)phenyl]-4-methoxy-indazol-1-yl]-3-methyl-butyl]benzoyl]amino]propanoic acid] |
| 6.51 |  | O=C(O)CCNC(=O)c1ccc(C(CC2CCCCC2)n2ncc3cc(-c4ccc(C(F)(F)F)cc4)ccc32)cc1 (stereo not shown) [compound 131] |
| 7.82 |  | CCOc1c(-c2ccc(C(F)(F)F)cc2C)ccc2c1cnn2C(CC(C)C)c1ccc(C(=O)NCCC(=O)O)nc1 (stereo not shown) [Compound #197, 3-(5-(1-(4-Ethoxy-5-(2-methyl-4-(trifluoromethyl)phenyl)-1H-indazol-1-yl)-3-methylbutyl)picolinamido)propanoic acid] |
| 5.54 |  | CC(C)CC(c1ccc(C(=O)NCCC(=O)O)cc1)n1ncc2cc(-c3ccsc3)ccc21 (stereo not shown) [compound 221] |
| < 5.28 |  | CC(C)CC(c1ccc(C(=O)NCCC(=O)O)nc1)n1cc2c(C(F)(F)F)c(-c3ccc(C(F)(F)F)cc3Cl)ccc2n1 (stereo not shown) [compound 235] |
| 6.51 |  | Cc1c(-c2ccc(Cl)cc2Cl)ccc2c1cnn2C(CC(C)C)c1ccc(C(=O)NCCC(=O)O)cc1 (stereo not shown) [Compound #127, 3-(4-(1-(5-(2,4-Dichlorophenyl)-4-methyl-1H-indazol-1-yl)-3-methylbutyl)benzamido)propanoic acid] |
| 6.81 |  | CC(C)CCC(c1ccc(C(=O)NCCC(=O)O)cc1)n1ncc2cc(-c3ccc(C(F)(F)F)cc3)ccc21 (stereo not shown) [compound 59] |
| 5.64 |  | CC(C)CC(c1ccc(C(=O)NCCC(=O)O)cc1)n1ncc2cc(-c3cnn(C)c3)ccc21 (stereo not shown) [Compound #12, 3-(4-(3-Methyl-1-(5-(1-methyl-1H-pyrazol-4-yl)-1H-indazol-1-yl)butyl)benzamido)propanoic acid] |
| 7.38 |  | Cc1cc(Cl)ccc1-c1ccc2nn(C(CC(C)(C)C)c3ccc(C(=O)NCCC(=O)O)cc3)cc2c1 (stereo not shown) [compound 195] |
| 6.98 |  | Cc1cc(C(F)(F)F)ccc1-c1cc2cnn(C(CC(C)C)c3ccc(C(=O)NCCC(=O)O)cc3)c2cc1Cl (stereo not shown) [Compound #261, 3-[[4-[1-[6-Chloro-5-[2-methyl-4-(trifluoromethyl)phenyl]indazol-1-yl]-3-methyl-butyl]benzoyl]amino]propanoic acid] |
| 6.87 |  | O=C(O)CCNC(=O)c1ccc(C(C2CCCCC2)n2cc3cc(-c4ccc(C(F)(F)F)cc4)ccc3n2)cc1 (stereo not shown) [compound 136] |
| 6.80 |  | Cc1cc(C(F)(F)F)ccc1-c1ccc2c(cnn2C(CCC(F)(F)F)c2ccc(C(=O)NCCC(=O)O)cc2)c1 (stereo not shown) [Compound #44, 3-[[4-[4,4,4-Trifluoro-1-[5-[2-methyl-4-(trifluoromethyl)phenyl]indazol-1-yl]butyl]benzoyl]amino]propanoic acid] |
| < 5.59 |  | CC(C)CC(c1ccc(C(=O)NCCC(=O)O)nc1)n1ncc2cc(-c3cc(Cl)cc(Cl)c3)ccc21 (stereo not shown) [compound 119] |
| 7.23 |  | Cc1cc(Cl)ccc1-c1ccc2nn(C(CCC(F)(F)F)c3ccc(C(=O)NCCC(=O)O)cc3)cc2c1 (stereo not shown) [Compound #8, 3-[[4-[1-[5-(4-Chloro-2-methyl-phenyl)indazol-2-yl]-4,4,4-trifluorobutyl]benzoyl]amino]propanoic acid] |
| 5.73 |  | COc1c(-c2ccc(C(F)(F)F)cc2C)ccc2c1cnn2[C@H](CC(C)C)c1ccc(C(=O)NCCC(=O)O)cc1 [compound 145, (R)-3-(4-(1-(4-Methoxy-5-(2-methyl-4-(trifluoromethyl)phenyl)-1H-indazol-1-yl)-3-methylbutyl)benzamido)propanoic acid] |
| 6.76 |  | CC(C)CC(c1ccc(C(=O)NCCC(=O)O)nc1)n1ncc2cc(-c3ccc(C(F)(F)F)cc3Cl)ccc21 (stereo not shown) [Compound #43, 3-(5-(1-(5-(2-Chloro-4-(trifluoromethyl)phenyl)-1H-indazol-1-yl)-3-methylbutyl)picolinamido)propanoic acid] |
| 6.70 |  | CCCCCCC(c1ccc(C(=O)NCCC(=O)O)cc1)n1ncc2cc(-c3ccc(C(C)(C)C)cc3)ccc21 (stereo not shown) [compound 128] |
| 6.37 |  | CC(C)CC(c1ccc(C(=O)NCCC(=O)O)nc1)n1ncc2cc(-c3ccc(C(C)(C)C)cc3)ccc21 (stereo not shown) [Compound #36, 3-(5-(1-(5-(4-(tert-Butyl)phenyl)-1H-indazol-1-yl)-3-methylbutyl)picolinamido)propanoic acid] |
| 7.04 |  | Cc1cc(C(F)(F)F)ccc1-c1ccc2c(cnn2C(CC(C)C)c2ccc(C(=O)NCCC(=O)O)cc2)c1C (stereo not shown) [Compound #21, 3-(4-(3-Methyl-1-(4-methyl-5-(2-methyl-4-(trifluoromethyl)phenyl)-1H-indazol-1-yl)butyl)benzamido)propanoic acid] |
| 7.00 |  | Cc1cc(C(F)(F)F)ccc1-c1ccc2c(cnn2C(CC(C)C)c2ccc(C(=O)NCCC(=O)O)cc2)c1Cl (stereo not shown) [Compound #135, 3-(4-(1-(4-Chloro-5-(2-methyl-4-(trifluoromethyl)phenyl)-1H-indazol-1-yl)-3-methylbutyl)benzamido)propanoic acid] |
| 6.19 |  | CCCC(c1ccc(C(=O)NCCC(=O)O)cc1)n1ncc2cc(-c3ccc(C(C)(C)C)cc3)ccc21 (stereo not shown) [Compound #56, 3-(4-(1-(5-(4-(tert-Butyl)phenyl)-1H-indazol-1-yl)butyl)benzamido)propanoic acid] |
| 5.81 |  | Cc1cc2c(cnn2[C@H](CC(C)C)c2ccc(C(=O)NCCC(=O)O)cc2)cc1-c1ccc(C(F)(F)F)cc1 [Compound #229, 3-[[4-[(1R)-3-Methyl-1-[6-methyl-5-[4-(trifluoromethyl)phenyl]indazol-1-yl]butyl]benzoyl]amino]propanoic acid] |
| 6.81 |  | CCCCCCC(c1ccc(C(=O)NCCC(=O)O)nc1)n1ncc2cc(-c3ccc(C(F)(F)F)cc3)ccc21 (stereo not shown) [compound 193] |
| 7.02 |  | CC(C)(C)CC(c1ccc(C(=O)NCCC(=O)O)cc1)n1ncc2cc(-c3ccc(C(F)(F)F)cc3)ccc21 (stereo not shown) [compound 231] |
| 7.07 |  | O=C(O)CCNC(=O)c1ccc(C(CC2CCC2)n2cc3cc(-c4ccc(C(F)(F)F)cc4)ccc3n2)cc1 (stereo not shown) [compound 211] |

| Structure (SMILES) | pKi | Ki |
| --- | --- | --- |
| Cc1cc(C(F)(F)F)ccc1-c1cc2cn([C@@H](CC(C)C)c3ccc(C(=O)NCCC(=O)O)cc3)nc2cc1C [Compound #248, 3-[[4-[(1 S)-3-Methyl-1-[6-methyl-5-[2-methyl-4-(trifluoromethyl)phenyl]indazol-2-yl]butyl]benzoyl]amino]propanoic acid] | 7.60 |  |
| Cc1cc2c(cnn2[C@@H](CC(C)C)c2ccc(C(=O)NCCC(=O)O)cc2)cc1-c1ccc(C(F)(F)F)cc1Cl [Compound #196, 3-[[4-[(1S)-1-[5-[2-Chloro-4-(trifluoromethyl)phenyl]-6-methyl-indazol-1-yl]-3-methyl-butyl]benzoyl]amino]propanoic acid] | 7.49 |  |

Tested on: GCG-mediated increases in blood glucose
Assay: Glucagon challenge in vivo assay measuring blood glucose (normal dog glucagon challenge test)
Conditions: 3 mg/kg oral gavage; fasted male beagle dogs; glucagon 5 μg/kg intramuscular 90 min after dosing
Protocol: Glucagon Challenge In Vivo Assay Measuring Blood Glucose
The efficacy of a glucagon receptor antagonist was evaluated using a normal dog glucagon challenge test. Male beagle dogs were overnight fasted prior to the study. Test compound (at 3 mg/kg and 10 mg/kg for Compound #196 and at 10 mg/kg for Compounds #180, #248 and #253) or vehicle (0.5% hydroxypropyl methylcellulose) was dosed via oral gavage. Ninety minutes later, the dogs (1.5 years old, ˜9 Kg) were submitted to a glucagon challenge test by a single intramuscular injection of glucagon (Glucagon, rDNA origin, Eli Lilly, Indianapolis, Ind.) at dose of 5 μg/kg. Blood glucose levels were determined at times −10 min, 0 min (on challenge), 10 min, 20 min, 30 min, and 60 min after glucagon injection.

| Structure (SMILES) | inhibition of GCG-mediated increases in blood glucose vs vehicle |
| --- | --- |
| Cc1cc2c(cnn2[C@@H](CC(C)C)c2ccc(C(=O)NCCC(=O)O)cc2)cc1-c1ccc(C(F)(F)F)cc1Cl [Compound #196, 3-[[4-[(1S)-1-[5-[2-Chloro-4-(trifluoromethyl)phenyl]-6-methyl-indazol-1-yl]-3-methyl-butyl]benzoyl]amino]propanoic acid] | 5.9% |

Same assay, conditions: 10 mg/kg oral gavage; fasted male beagle dogs; glucagon 5 μg/kg intramuscular

| Structure (SMILES) | blood glucose levels during glucagon challenge compared with vehicle treated group | duration of blood glucose reducing effect after glucagon injection |
| --- | --- | --- |
| Cc1c(-c2ccc(C(F)(F)F)cc2Cl)ccc2nn([C@@H](CC(C)C)c3ccc(C(=O)NCCC(=O)O)cc3)cc12 [Compound #180, 3-[[4-[(1S)-1-[5-[2-Chloro-4-(trifluoromethyl)phenyl]-4-methyl-indazol-2-yl]-3-methyl-butyl]benzoyl]amino]propanoic acid] | markedly reduced blood glucose levels | more than 60 min |

Same assay, conditions: 10 mg/kg oral gavage; fasted male beagle dogs; glucagon 5 μg/kg intramuscular 90 min after dosing

| Structure (SMILES) | inhibition of GCG-mediated increases in blood glucose vs vehicle |
| --- | --- |
| Cc1cc(C(F)(F)F)ccc1-c1cc2cn([C@@H](CC(C)C)c3ccc(C(=O)NCCC(=O)O)cc3)nc2cc1C [Compound #248, 3-[[4-[(1 S)-3-Methyl-1-[6-methyl-5-[2-methyl-4-(trifluoromethyl)phenyl]indazol-2-yl]butyl]benzoyl]amino]propanoic acid] | 15% |
| Cc1c(-c2ccc(C(F)(F)F)cc2Cl)ccc2nn([C@@H](CC(C)C)c3ccc(C(=O)NCCC(=O)O)cc3)cc12 [Compound #180, 3-[[4-[(1S)-1-[5-[2-Chloro-4-(trifluoromethyl)phenyl]-4-methyl-indazol-2-yl]-3-methyl-butyl]benzoyl]amino]propanoic acid] | 28.9% |
| Cc1cc(C(F)(F)F)ccc1-c1cc2cnn([C@@H](CC(C)C)c3ccc(C(=O)NCCC(=O)O)cc3)c2cc1C [Compound #253, 3-[[4-[(1S)-3-Methyl-1-[6-methyl-5-[2-methyl-4-(trifluoromethyl)phenyl]indazol-1-yl]butyl]benzoyl]amino]propanoic acid] | 17.1% |
| Cc1cc2c(cnn2[C@@H](CC(C)C)c2ccc(C(=O)NCCC(=O)O)cc2)cc1-c1ccc(C(F)(F)F)cc1Cl [Compound #196, 3-[[4-[(1S)-1-[5-[2-Chloro-4-(trifluoromethyl)phenyl]-6-methyl-indazol-1-yl]-3-methyl-butyl]benzoyl]amino]propanoic acid] | 23.9% |
